Experimental data reported in US20230089273A1, “METHODS FOR MATURING AN ARTERIOVENOUS FISTULA” (ALUCENT BIOMEDICAL, INC., priority 2020, published 2023).

Columns and labels:
[1] = test system: Femoral AVFs in young Wistar male rats; experiment: Rat femoral AVF model, histology and morphometry (VVG); type: in vivo
Procedure: (§1) Femoral AVFs were created in young Wistar male rats by connecting the femoral artery (side) and femoral vein (end) in the same limb. FIGS. 1A-B show the surgical procedure. Immediately after the blood flow was restored and dilatation of the femoral vein occurred, a 10 μl -drop of a composition comprising 2 mg/ml Compound of Formula (I) in PBS was placed at the AVF perivascularly and incubated for 5 minutes, to allow the Compound of Formula (I) to diffuse into the vascular wall. The Compound of Formula (I) was activated by a 1 minute illumination by 450 nm light. A control group of young Wistar male rats received a 10 μl -drop of phosphate buffered saline and the same light activation. The rats' skin was closed immediately after light activation. FIG. 1C is a photograph of the incubation with NVS, applied perivascularly on the anastomosis to allow the compound to diffuse into the vascular tissue. FIG. 1D is a photograph of the small molecule treated area being exposed to 1 minute of illumination with a 450 -nm light source. FIG. 1E depicts fluorescence images after following light activation, 2 animals were sacrificed and their vessels observed on a fluorescence microscope at 450 nm excitation for NVS.
Rats were euthanized 1 week (early time point, 4 per group) and 4 weeks (later time point, 10 per group) post-AVF creation for histology and morphometry. Verhoeff-Van Gieson (VVG)-stained thin cross-sections were used to measure the area enclosed by internal elastic lamina (IEL), the area of open lumen, and the area of neointimal hyperplasia (NH) by Image J software. Percent open lumen area=open lumen area/IEL-enclosed area×100%. These analyses were done at three locations: the entire AVF, the AVF venous limb, and the AVF arterial limb.
An unpaired, two-tailed t-test was used to determine the statistical significance between the two treatment groups (no-NVS (i.e., control) vs. NVS (treatment with Compound of Formula (I))) in each of the data sets, with α=0.05.

MMP-2 = experiment: Immunohistochemistry of the AVF: MMP-2; type: in vivo, rat; conditions: 4 weeks
Text: (§2) Based on the results from the morphometric analysis in Example 1, the expression level of several molecular targets associated with AVF maturation failure (i.e., MMP2-MMP-9, Ki-67, and IL6) in the AVF vessels at the 4-week time point were selected for further investigation.
(§3) But excessive fibrosis of the vessel walls due to local inflammation as well as the circumferential arrangement of newly synthesized collagen fibers has shown a positive association with AVF non-maturation (possibly due to decreasing the distensibility of the veins as they go through the arterialization process). MMP-9 is an inflammatory marker, and although MM-2 is usually not considered an inflammatory marker, both metalloproteinases have nearly identical ECM substrates and are important in vascular remodeling. […] Ki-67 is a marker of cell proliferation, which allows assessing the proliferation of vascular wall cells during the AVF development process.

MMP-9 = experiment: Immunohistochemistry of the AVF: MMP-9; type: in vivo, rat; conditions: 4 weeks
Text: as §2, §3

IL-6 = experiment: Immunohistochemistry of the AVF: IL-6; type: in vivo, rat; conditions: 4 weeks
Text: as §2, §3

Ki-67 = experiment: Immunohistochemistry of the AVF: Ki-67; type: in vivo, rat; conditions: entire AVF, 4 weeks
Text: as §2, §3

HUVECs = experiment: Cell death (apoptosis) assay, R&D system kit, HUVEC; type: cell-based; conditions: 0.25, 2.5, 25 μg/ml, 5 min, 450 nm light 1 min, D0-D3, FIG. 12A
Procedure: (§4) Cell death assays used the cell death detection R&D system kit to detect cell death via apoptosis. Cell density was 1×10^5 per well in a 96-well plate for R&D system kit. HUVECs and HASMCs were treated with NVS in different concentrations (0, 0.25, 2.5, and 25 μg/ml) in serum free medium for 5 minutes in the incubator. After removing NVS, cells were washed with serum free medium once, and the plate was refilled with 200 μl serum free medium in each well. Cells were treated using 450 nm light for 1 minute at room temperature, and then serum free medium was removed and each well was refilled with 200 μl of medium supplemented with 10% serum. At 0, 1, 2, and 3 days post-treatment (D0, D1, D2, and D3), cell death assay was performed according to the manufacturer's protocol. Positive controls were cells incubated with hypertonic buffer (10 mM Tris PH 7.4, 400 mM NaCl, 10 mM MgCl2) at 37° C. for 2 hours.

HASMCs = experiment: Cell death (apoptosis) assay, R&D system kit, HASMC; type: cell-based; conditions: 0.25, 2.5, 25 μg/ml, 5 min, 450 nm light 1 min, D0-D3, FIG. 12B
Procedure: as §4

[2] = test system: collagen fibers in AVF medial layer; experiment: Multiphoton / SHG imaging of collagen fibers in AVF; type: in vivo, rat
Procedure: Second harmonic generation (SHG) imaging was performed on 5 μm thick formalin-fixed paraffin embedded (FFPE) sections using Leica SP8 Dive with spectral tunable detection. Collagen fiber orientation in the medial layer was analyzed in relationship to the lumen. Each sample was divided into 4 quadrants and the medial layer was examined in each quadrant; the area of examination for each quadrant was 25 μm^2. The same images were used for other collagen morphology using the MIPAR image software analysis.

[3] = test system: native blood vessels, anastomosis area; experiment: Fluorescence imaging of vessels after NVS and laser treatment; type: in vivo, rat; conditions: vessels harvested immediately after NVS and laser treatment, FIG. 1E
Procedure: as §1, with “FIGS. 1C-E show photographs of the surgical procedure described in Example 1. (C) AVF surgery area was incubated with NVS solution for 5 min; (D) NVS was activated by laser at 450 nm for 1 min; (E) Fluorescent images of native blood vessels that are harvested immediately after the NVS and laser treatment. […] Femoral” for “Femoral”, “FIG. 1D is a photograph of the small molecule treated area being exposed to 1 minute of illumination with a 450 -nm light source.” left out

[4] = week 4, trend, not statistically different

NCCOCCOCCNc1ccc2c3c(cccc13)C(=O)N(CCOCCOCCN1C(=O)c3cccc4c(NCCOCCOCCN)ccc(c34)C1=O)C2=O [NVS, 2,2′-((ethane-1,2-diylbis(oxy))bis(ethane-2,1-diyl))bis(6-((2-(2-(2-aminoethoxy)ethoxy)ethyl)amino)-1H-benzo[de]isoquinoline-1,3(2H)-dione)]
AVF venous limb % open lumen area, fold larger than control ([1]; 4 weeks, p=0.009, FIG. 6): 1.98 fold | AVF venous limb open lumen area, fold larger than control ([1]; 4 weeks, p=0.014, FIG. 6): 4.18 fold | entire AVF % open lumen area, fold larger than control ([1]; 4 weeks, p=0.052, FIG. 5): 1.49 fold | entire AVF open lumen area, fold larger than control ([1]; 4 weeks, p=0.062, FIG. 5): 2.25 fold | tolerability of treatment ([1]; 10 μl drop of 2 mg/ml in PBS perivascular, 5 min, 450 nm light 1 min): tolerated the treatment well | venous diameter vs PBS control ([1]; by 4 weeks after AVF creation surgery): enlarged venous diameter | all four morphometric parameters (IEL-enclosed area, neointimal lesion area, open lumen area, % area of open lumen) vs PBS ([1]; entire AVF, 1 week): similar | NH (neointimal hyperplasia) area vs control ([1]; regardless of the locations): without significantly affecting | AVF open lumen area, effect of treatment ([1]; summary statement): significantly increased | MMP-2 expression level vs PBS group (MMP-2; arterial limb): trending lower | MMP-2 expression level vs PBS group (MMP-2; entire AVF): trending lower | MMP-2 area stained positive, fold lower than PBS group (MMP-2; venous limb, p=0.015, FIG. 8C): 1.8 fold | MMP-9 % area stained positive, fold lower than PBS group (MMP-9; arterial limb, p=0.036, FIG. 9D): 2.4 fold | MMP-9 expression level vs PBS group (MMP-9; entire AVF): trending lower | MMP-9 % area stained positive, fold lower than PBS group (MMP-9; venous limb, p=0.019, FIG. 9D): 1.8 fold | IL-6 mean gray value, fold lower than PBS group (IL-6; arterial limb, p=0.015, FIG. 10C): 1.6 fold | IL-6 mean gray value, fold lower than PBS group (IL-6; entire AVF, p=0.027, FIG. 10C): 1.4 fold | IL-6 expression level vs PBS group (IL-6; venous limb): trending lower | Ki-67 expression level vs PBS group (Ki-67): similar | cell death via apoptosis (HUVECs): minimal cell death | cell death via apoptosis (HASMCs): minimal cell death | analyzed regions exhibiting favorable collagen orientation for AVF maturation ([2]; AVFs at week 4, not statistically significant vs PBS (25%)): 58% | collagen shape features (roundness, roughness, eccentricity) vs PBS treated samples [2, 4]: more defined shape features | overall collagen area vs PBS treated samples [2, 4]: less overall collagen area | penetration into vascular tissue (green fluorescence) [3]: penetration throughout the anastomosis area
